Data from the NIST ThermoML archive (doi:10.1021/je700308j).
Several values for one entry are separate records, joined by “and”; a condition that tells them apart may be missing. Identical values can stand only once.

Experiments:
[1] = excess molar enthalpy (molar enthalpy of mixing); xn = mol fraction of the nth substance listed; conditions: 101 kPa, Liquid, Flow calorimetry
[2] = heat capacity at constant pressure per volume; xn = mol fraction of the nth substance listed; conditions: 298.15 K, 101 kPa, Liquid, Flow calorimetry
[3] = xn = mol fraction of the nth substance listed; conditions: 298.15 K, 101 kPa, Liquid

C1CCCC1 [cyclopentane] + CCCCCCCCCCO
excess molar enthalpy, [1]
Conditions | x1 = 0.336 | x1 = 0.465 | x1 = 0.575 | x1 = 0.67 | x1 = 0.752 | x1 = 0.89 | x1 = 0.975
298.15 K | 0.0786 kcal/mol and 0.0778 kcal/mol | 0.0965 kcal/mol | 0.104 kcal/mol | 0.105 kcal/mol | 0.101 kcal/mol | 0.0851 kcal/mol | –
298.65 K | – | – | – | – | – | – | 0.0495 kcal/mol

C1CCCC1 [cyclopentane] + CCCCCCCCCO
[1], 298.15 K
Conditions | excess molar enthalpy [kcal/mol]
x1 = 0.171 | 0.0418
x1 = 0.316 | 0.0712
x1 = 0.442 | 0.091
x1 = 0.552 | 0.101
x1 = 0.649 | 0.104
x1 = 0.735 | 0.102
x1 = 0.812 | 0.0962
x1 = 0.881 | 0.0862
x1 = 0.943 | 0.07
x1 = 0.972 | 0.0548

C1CCCC1 [cyclopentane] + CCCCCCCCO
[1], 298.15 K
Conditions | excess molar enthalpy [kcal/mol]
x1 = 0.157 | 0.0349
x1 = 0.295 | 0.0632
x1 = 0.418 | 0.0844
x1 = 0.528 | 0.0971
x1 = 0.626 | 0.104
x1 = 0.715 | 0.105
x1 = 0.796 | 0.0987
x1 = 0.87 | 0.0889
x1 = 0.938 | 0.0725
x1 = 0.97 | 0.0576

C1CCCC1 [cyclopentane] + CCCCCCCO
[1], 298.15 K
Conditions | excess molar enthalpy
x1 = 0.143 | 0.0296 kcal/mol
x1 = 0.273 | 0.0554 kcal/mol
x1 = 0.392 | 0.0786 kcal/mol
x1 = 0.5 | 0.0937 kcal/mol
x1 = 0.6 | 0.104 kcal/mol
x1 = 0.692 | 0.106 kcal/mol
x1 = 0.778 | 0.102 kcal/mol
x1 = 0.857 | 0.0921 kcal/mol and 0.0923 kcal/mol
x1 = 0.931 | 0.075 kcal/mol
x1 = 0.966 | 0.0603 kcal/mol

C1CCCC1 [cyclopentane] + CCCCCCO
[1], 298.15 K
Conditions | excess molar enthalpy
x1 = 0.128 | 0.0277 kcal/mol
x1 = 0.249 | 0.0484 kcal/mol
x1 = 0.362 | 0.0707 kcal/mol
x1 = 0.469 | 0.0894 kcal/mol and 0.0897 kcal/mol
x1 = 0.57 | 0.102 kcal/mol
x1 = 0.665 | 0.108 kcal/mol
x1 = 0.756 | 0.105 kcal/mol
x1 = 0.841 | 0.0954 kcal/mol
x1 = 0.923 | 0.0778 kcal/mol
x1 = 0.962 | 0.0619 kcal/mol

C1CCCC1 [cyclopentane] + CCCCCO
[1], 298.15 K
Conditions | excess molar enthalpy [kcal/mol]
x1 = 0.113 | 0.0229
x1 = 0.223 | 0.0451
x1 = 0.33 | 0.0674
x1 = 0.434 | 0.0882
x1 = 0.535 | 0.105
x1 = 0.633 | 0.115
x1 = 0.728 | 0.115
x1 = 0.821 | 0.105
x1 = 0.912 | 0.0849
x1 = 0.956 | 0.0674

C1CCCC1 [cyclopentane] + CCCCO
[1], 298.15 K
Conditions | excess molar enthalpy
x1 = 0.098 | 0.022 kcal/mol
x1 = 0.196 | 0.0427 kcal/mol
x1 = 0.294 | 0.0637 kcal/mol
x1 = 0.393 | 0.0857 kcal/mol and 0.0846 kcal/mol
x1 = 0.493 | 0.104 kcal/mol
x1 = 0.593 | 0.118 kcal/mol
x1 = 0.694 | 0.124 kcal/mol
x1 = 0.796 | 0.116 kcal/mol
x1 = 0.897 | 0.0941 kcal/mol
x1 = 0.949 | 0.0739 kcal/mol

CCCCCCCCCCO [decan-1-ol] + C1CCOC1
Conditions | heat capacity, [2] [J/K/m3] | mass density, [3] [kg/m3]
x2 = 0.0904 | 1904000 | 828.17
x2 = 0.2067 | 1869000 | 831.12
x2 = 0.3967 | 1810000 | 837.35
x2 = 0.5985 | 1734000 | 846.59
x2 = 0.7992 | 1635000 | 860.14
x2 = 0.8981 | 1573000 | 869.46

CCCCCCCO [heptan-1-ol] + C1CCOC1
Conditions | heat capacity, [2] [J/K/m3] | mass density, [3] [kg/m3]
x2 = 0.1103 | 1888000 | 822.54
x2 = 0.2085 | 1859000 | 826.55
x2 = 0.3123 | 1827000 | 831.18
x2 = 0.4046 | 1797000 | 835.76
x2 = 0.496 | 1765000 | 840.88
x2 = 0.5973 | 1725000 | 847.05
x2 = 0.6977 | 1680000 | 854.06
x2 = 0.8031 | 1627000 | 862.49
x2 = 0.9021 | 1572000 | 871.51

CCCCCCO [hexan-1-ol] + C1CCOC1
Conditions | heat capacity, [2] [J/K/m3] | mass density, [3] [kg/m3]
x2 = 0.1191 | 1886000 | 820.48
x2 = 0.1994 | 1862000 | 824.38
x2 = 0.3032 | 1829000 | 829.77
x2 = 0.3931 | 1800000 | 834.74
x2 = 0.505 | 1759000 | 841.56
x2 = 0.6028 | 1719000 | 848.03
x2 = 0.6944 | 1678000 | 854.68
x2 = 0.7937 | 1628000 | 862.57
x2 = 0.8961 | 1574000 | 871.63

CCCCCCCCCO [nonan-1-ol] + C1CCOC1
[3]
Conditions | mass density [kg/m3]
x2 = 0.1048 | 827.19
x2 = 0.1889 | 829.58
x2 = 0.3131 | 833.79
x2 = 0.4067 | 837.47
x2 = 0.504 | 841.9
x2 = 0.6004 | 847.05
x2 = 0.7009 | 853.33
x2 = 0.7999 | 860.89
x2 = 0.9015 | 870.34
